These results are taken from PubChem BioAssay (NCI).

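Results reflect a 48-hour exposure of cells in 96-well plates to compound at five concentrations. GI50 is the concentration that inhibits growth by half. The concentration for full growth arrest is given as TGI.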

Holding throughout (test): DTP human tumour cell line panel, 48 h
The subject of test [1] is KM12 colon.
The test system of test [2] is MOLT-4 leukemia.
The subject of test [3] is IGROV1 ovarian.
Test [4] relates to HT29 colon.
Test [5] deals with 786-0 renal.
In test [6] the test system is SF-295 CNS.
Test [7] relates to TK-10 renal.
The test system of test [8] is HOP-92 NSCLC.
Test [9] concerns DU-145 prostate.
Test [10] concerns BT-549 breast.

By TGI is commonly meant the concentration giving total growth inhibition. For `N/C=N/S(=O)(=O)c1ccc(NC(=O)COC(=O)c2cccc3c(=O)c4ccccc4[nH]c23)cc1`, the TGI in [1], in test [2], in test [3], in test [4], in [5] and in test [6] was greater than 100 µM each time. This compound gave a TGI in [7] greater than 100 µM.
For `CCc1ccccc1NC(=O)C(=O)C(C#N)c1ccccc1Cl` (centres undefined), the TGI in test [8], in [1], in test [2], in [3], in test [4] and in [5] was greater than 100 µM in each case. Also, the TGI in test [6] was greater than 100 µM; in [7], 6.31 µM.
`O=Cc1cccc2ccc3ccccc3c12`: the TGI is 25.4 µM in [1]; 54.2 µM in test [4]; 53.5 µM in test [5]; 50.2 µM in [6]; greater than 100 µM in test [9]; 40.2 µM in test [7]. Moreover, the TGI in test [10] was determined as 96.9 µM.
Consider `O=C(Cc1ccccc1[N+](=O)[O-])C(CO)c1ccccc1[N+](=O)[O-]` (centres undefined), for which the concentration for total growth inhibition (TGI) in [8] was 93.3 µM; in test [1], greater than 100 µM; in test [2], greater than 100 µM; in test [3] it was greater than 100 µM; in test [4], greater than 100 µM; in test [5], greater than 100 µM. The TGI in test [6] and in test [7] was greater than 100 µM each time.
On to `O=C(C=Nc1ccccc1C(=O)[O-])c1cccs1.O=C(C=Nc1ccccc1C(=O)[O-])c1cccs1.[Ni+2]`, for which the TGI in [8], in [1], in test [2], in [3], in test [4] and in test [5] was greater than 100 µM throughout. Besides, the TGI in test [6] and in [7] was greater than 100 µM each time.
Consider `COC(=O)C1CSC(c2csc(CCN)n2)=N1` (centres undefined), for which the TGI in [8], in [1], in test [2], in [3], in [4] and in test [5] was greater than 100 µM in each case. Further, the TGI in [6] and in test [7] was greater than 100 µM throughout.
Turning to `COC(=O)Cc1c([C@@]2(C)CCCC(C)(C)C2)ccc2c1C(=O)OC2`, the concentration for total growth inhibition (TGI) was 8.38 µM in test [8]; 30.6 µM in [1]; 18.2 µM in [2]; 47.5 µM in [3]; 28.4 µM in [4]; 30.8 µM in test [5]. Also, the TGI in test [6] was 26.1 µM; in test [7], 59.3 µM.
As for `Nc1nc(N)c(CCCCc2ccccc2)c(C=O)n1`, the TGI in [1] came to 40.8 µM; in test [3], 38.1 µM; in test [4], 26.5 µM; in [5], 29.4 µM; in test [6], 64.7 µM; in test [7], 93 µM.
Turning to `NC1N=Nc2ccccc21` (centres undefined), the TGI in test [8], in test [1], in [2], in test [3], in [4] and in test [5] was greater than 100 µM throughout. Moreover, the concentration for total growth inhibition (TGI) in [6] and in [7] was greater than 100 µM each time.
`COc1cccc(C=O)c1C(=O)c1cc(O)ccc1O`: the TGI in test [8] was 33.1 µM; in test [1] it was greater than 100 µM; in test [2] it was 27.5 µM; in test [3], greater than 62.5 µM; in test [4], greater than 76.3 µM; in test [5], greater than 100 µM. For the same compound, the TGI in test [6] is greater than 100 µM; in test [7], greater than 56.7 µM.
As a reminder, the GI50 is the concentration that inhibits growth by half. Take `O=C1C(=c2ccc(=C3C(=O)c4ccc([N+](=O)[O-])cc4[N+]3=O)cc2)N([O-])c2cc([N+](=O)[O-])ccc21`: the GI50 in test [8], in test [1], in test [2], in [3] and in test [4] was greater than 100 µM throughout. Besides, the TGI in test [8], in test [1], in test [2], in [3], in [4] and in [5] was greater than 100 µM throughout.
With `O=C(CCC(=O)Nc1ccc(Cl)c(Cl)c1)CC(=O)c1ccc2ccccc2c1`, the TGI in test [8], in [1], in test [2], in test [3], in test [4] and in test [5] was greater than 100 µM in each case. Also, the TGI in test [6] and in test [7] was greater than 100 µM throughout.
Take `Cc1ccc([Se](=C(C(=O)c2ccccc2)C(=O)c2ccccc2)c2ccc(C)cc2)cc1`: the TGI in [8] was 53.4 µM; in test [1], 44.1 µM; in test [2], 43.3 µM; in [3], 78.5 µM; in [4], 35.2 µM; in test [5], greater than 100 µM. Also, the TGI in test [6] was 66.5 µM; in test [9] it was greater than 100 µM; in test [7] it was 94.6 µM.
Consider `O=[N+]([O-])c1cc(-c2nc(=S)[nH][nH]2)ccc1O`, for which the TGI in test [1], in test [3], in test [4], in [5], in test [6] and in test [7] was greater than 100 µM each time.
Turning to `[O-]/N=[N+](/[O-])C1CCCCC1=[N+]1CCOCC1` (centres undefined), the total growth inhibition concentration (TGI) in test [8], in test [1], in test [2], in test [4], in test [5] and in test [6] was greater than 100 µM each time. Further, in test [7], the TGI is greater than 100 µM.
For `OCC1OC2c3ccccc3COC2C1OCc1ccccc1` (centres undefined), the TGI in [1], in [2], in test [3], in test [4], in [5] and in [6] was greater than 100 µM in each case. This compound also displayed a TGI in [7] greater than 100 µM.
